{"source": "paper PMC5566973", "about": "(Frontiers in Pharmacology, 2017)", "key": {"Caco-2 cell monolayers": {"system": "Caco-2 cell monolayers", "conditions": "transcellular flux marker; ref Shen et al., 2015; cited from earlier work"}, "[1]": {"assay": "Urinary and fecal excretion in rats", "type": "in vivo, Sprague-Dawley rats", "conditions": "for Cumulative excretion of the analyte, SUM of urine and feces: within 72 h", "procedure": "Access to water was maintained all the time. Samples including blank urine and feces before dosing, urine and feces from 0 to 24 h, 24 to 48 h, and 48 to 72 h after dosing were collected and stored at −80°C until analysis.\nUrine samples were thawed and an aliquot of 100 μL was processed for detection as described in Section Drug Analysis. Feces were homogenized and then weighed, added 6-folds of acetonitrile, extracted by ultrasonic wave for 1 h and then centrifuged. An aliquot of 100 μL was also processed for detection as described in Section Drug Analysis."}, "human MRP2": {"biological_target": "T1, human MRP2 (Homo sapiens, UniProt Q92887)", "T1 construct": "purchased GenoMembrane (Kanagawa, Japan); host or cells: Sf9", "T1 sequence (Q92887 whole entry)": "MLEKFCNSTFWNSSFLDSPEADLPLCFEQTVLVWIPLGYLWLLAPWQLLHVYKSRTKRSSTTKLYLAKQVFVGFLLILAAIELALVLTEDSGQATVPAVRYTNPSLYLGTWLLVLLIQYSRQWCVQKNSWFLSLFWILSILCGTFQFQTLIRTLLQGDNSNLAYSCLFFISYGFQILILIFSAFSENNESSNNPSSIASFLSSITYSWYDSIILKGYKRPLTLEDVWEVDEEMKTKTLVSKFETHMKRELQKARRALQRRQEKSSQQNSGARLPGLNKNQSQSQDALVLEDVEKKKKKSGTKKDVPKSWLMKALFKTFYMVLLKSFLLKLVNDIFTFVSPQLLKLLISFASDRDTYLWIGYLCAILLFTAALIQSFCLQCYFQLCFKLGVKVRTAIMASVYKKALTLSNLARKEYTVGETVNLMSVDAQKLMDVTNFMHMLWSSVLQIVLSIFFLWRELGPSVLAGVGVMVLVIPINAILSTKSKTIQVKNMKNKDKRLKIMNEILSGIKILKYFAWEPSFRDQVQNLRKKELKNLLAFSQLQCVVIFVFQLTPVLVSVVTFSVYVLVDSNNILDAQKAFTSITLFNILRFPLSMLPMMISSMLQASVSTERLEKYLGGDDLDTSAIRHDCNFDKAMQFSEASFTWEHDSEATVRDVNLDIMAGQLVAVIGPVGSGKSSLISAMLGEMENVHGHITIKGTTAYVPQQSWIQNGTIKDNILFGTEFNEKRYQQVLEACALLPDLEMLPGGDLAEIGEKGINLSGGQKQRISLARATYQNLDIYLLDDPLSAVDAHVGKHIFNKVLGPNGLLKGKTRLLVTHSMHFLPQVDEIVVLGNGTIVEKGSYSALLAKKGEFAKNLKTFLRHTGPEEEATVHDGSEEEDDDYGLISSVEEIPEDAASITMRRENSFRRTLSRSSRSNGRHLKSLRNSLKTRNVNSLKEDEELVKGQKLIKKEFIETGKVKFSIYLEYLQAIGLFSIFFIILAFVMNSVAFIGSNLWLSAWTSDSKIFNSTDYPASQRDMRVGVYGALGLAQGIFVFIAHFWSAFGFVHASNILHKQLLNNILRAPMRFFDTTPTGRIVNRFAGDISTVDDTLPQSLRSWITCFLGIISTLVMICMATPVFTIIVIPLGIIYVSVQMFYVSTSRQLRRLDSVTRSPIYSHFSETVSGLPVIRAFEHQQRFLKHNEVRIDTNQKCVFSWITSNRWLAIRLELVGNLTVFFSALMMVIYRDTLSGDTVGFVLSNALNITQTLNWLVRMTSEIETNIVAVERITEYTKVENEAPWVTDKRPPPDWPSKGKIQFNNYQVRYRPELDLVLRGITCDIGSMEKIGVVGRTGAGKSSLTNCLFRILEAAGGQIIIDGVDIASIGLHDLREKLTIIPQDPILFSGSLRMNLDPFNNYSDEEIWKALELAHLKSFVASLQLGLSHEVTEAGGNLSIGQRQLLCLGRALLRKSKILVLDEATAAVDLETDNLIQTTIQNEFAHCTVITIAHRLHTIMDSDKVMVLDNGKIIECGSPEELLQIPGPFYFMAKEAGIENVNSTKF", "assay": "Vesicular transport assay, Sf9 membrane vesicles expressing human MRP2", "type": "in vitro ADME", "conditions": "probe at 50 μM", "procedure": "(§1) The vesicular transport assay was implemented as described in the GenoMembrane™ vesicular transport kit protocol (GenoMembrane, Kanagawa, Japan) with minor changes. Briefly, vesicle stocks were thawed and diluted with assay buffer (50 mM MOPS-Tris, 70 mM KCl, and 7.5 mM MgCl2). […] MgAMP instead of MgATP was used as a control. Apart from these, 4 mM glutathione was also included in BCRP and MRP2 assays. Transport was terminated with ice cold assay buffer, and then samples were quickly transferred to a filter plate. Wells were immediately washed 5 times with 200 μL assay buffer and dried. The vesicles on the plate were dissolved in 50 μL of 80% methanol and centrifuged at 2,000 rpm for 2 min after collection, and repeating the above procedures. Mixed the two filtrates together and added the pre-cooled methanol. After centrifugation at 12,000 rpm for 5 min at 4°C, a 5 μL aliquot of supernatant was injected into the UPLC-ESI-MS/MS system for analysis. Furthermore, the uptake of NMQ (MDR1), LY (BCRP), and E217βG (MRP2) was used to evaluate the activity of specific vesicles."}, "human MDR1": {"biological_target": "T2, human MDR1 (Homo sapiens, UniProt P08183)", "T2 construct": "purchased GenoMembrane (Kanagawa, Japan); host or cells: Sf9", "T2 sequence (P08183 whole entry)": "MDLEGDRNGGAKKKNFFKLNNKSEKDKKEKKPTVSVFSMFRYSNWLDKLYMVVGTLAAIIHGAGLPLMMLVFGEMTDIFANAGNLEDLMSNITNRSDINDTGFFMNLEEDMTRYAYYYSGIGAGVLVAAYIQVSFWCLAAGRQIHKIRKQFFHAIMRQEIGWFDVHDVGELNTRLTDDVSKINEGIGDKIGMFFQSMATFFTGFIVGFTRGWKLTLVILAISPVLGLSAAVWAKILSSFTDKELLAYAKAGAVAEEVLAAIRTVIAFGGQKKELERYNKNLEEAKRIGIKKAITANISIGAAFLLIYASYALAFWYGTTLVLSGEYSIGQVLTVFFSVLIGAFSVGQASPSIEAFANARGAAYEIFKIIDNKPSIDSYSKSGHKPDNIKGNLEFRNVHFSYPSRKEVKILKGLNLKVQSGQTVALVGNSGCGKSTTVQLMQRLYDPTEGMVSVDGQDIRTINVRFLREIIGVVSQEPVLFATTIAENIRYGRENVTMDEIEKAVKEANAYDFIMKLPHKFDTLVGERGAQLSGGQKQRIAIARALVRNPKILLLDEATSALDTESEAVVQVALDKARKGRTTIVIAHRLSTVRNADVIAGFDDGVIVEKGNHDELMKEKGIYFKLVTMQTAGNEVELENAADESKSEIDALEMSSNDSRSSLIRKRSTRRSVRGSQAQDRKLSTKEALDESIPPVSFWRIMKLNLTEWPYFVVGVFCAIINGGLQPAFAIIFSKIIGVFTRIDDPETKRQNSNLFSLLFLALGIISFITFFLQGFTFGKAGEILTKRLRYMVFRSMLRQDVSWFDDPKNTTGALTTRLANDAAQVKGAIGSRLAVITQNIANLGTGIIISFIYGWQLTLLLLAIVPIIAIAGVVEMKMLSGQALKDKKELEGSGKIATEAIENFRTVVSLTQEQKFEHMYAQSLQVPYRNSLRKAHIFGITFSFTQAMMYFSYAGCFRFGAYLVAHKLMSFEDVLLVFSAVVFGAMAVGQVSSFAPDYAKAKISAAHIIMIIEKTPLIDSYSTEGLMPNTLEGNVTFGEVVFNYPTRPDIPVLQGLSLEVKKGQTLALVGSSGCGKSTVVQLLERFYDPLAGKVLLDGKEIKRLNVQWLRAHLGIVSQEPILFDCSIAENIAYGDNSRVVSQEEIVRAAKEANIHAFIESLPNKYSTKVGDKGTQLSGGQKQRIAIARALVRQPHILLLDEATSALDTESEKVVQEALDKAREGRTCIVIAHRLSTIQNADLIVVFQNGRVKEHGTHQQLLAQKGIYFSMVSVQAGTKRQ", "assay": "Vesicular transport assay, Sf9 membrane vesicles expressing human MDR1", "type": "in vitro ADME", "conditions": "probe at 5 μM", "procedure": "as §1"}, "human BCRP": {"biological_target": "T3, human BCRP (Homo sapiens, UniProt Q9UNQ0)", "T3 construct": "purchased GenoMembrane (Kanagawa, Japan); host or cells: Sf9", "T3 sequence (Q9UNQ0 1-655)": "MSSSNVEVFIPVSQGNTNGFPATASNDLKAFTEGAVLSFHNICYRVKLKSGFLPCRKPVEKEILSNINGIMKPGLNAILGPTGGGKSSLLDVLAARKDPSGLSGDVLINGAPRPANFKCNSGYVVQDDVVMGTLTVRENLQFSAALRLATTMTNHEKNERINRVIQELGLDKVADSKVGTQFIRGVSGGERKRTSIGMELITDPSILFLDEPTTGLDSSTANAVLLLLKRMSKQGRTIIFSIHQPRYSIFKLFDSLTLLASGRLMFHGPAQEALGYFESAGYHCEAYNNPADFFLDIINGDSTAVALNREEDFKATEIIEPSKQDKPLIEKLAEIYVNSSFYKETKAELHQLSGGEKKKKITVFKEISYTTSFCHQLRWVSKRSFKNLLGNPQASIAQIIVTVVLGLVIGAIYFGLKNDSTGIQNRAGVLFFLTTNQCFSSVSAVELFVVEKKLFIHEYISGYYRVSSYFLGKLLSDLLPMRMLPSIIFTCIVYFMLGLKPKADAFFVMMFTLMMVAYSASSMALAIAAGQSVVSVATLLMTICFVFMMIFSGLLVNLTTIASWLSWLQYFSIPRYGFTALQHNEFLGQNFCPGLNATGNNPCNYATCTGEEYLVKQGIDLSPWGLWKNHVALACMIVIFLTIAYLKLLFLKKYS", "assay": "Vesicular transport assay, Sf9 membrane vesicles expressing human BCRP", "type": "in vitro ADME", "conditions": "10 μM, MgATP vs MgAMP", "procedure": "as §1"}, "[2]": {"conditions": "after oral harmaline 40.0 mg/kg, 24 h"}, "[3]": {"conditions": "after oral harmaline 40.0 mg/kg, 48 h"}, "[4]": {"conditions": "after oral harmaline 40.0 mg/kg, 72 h"}, "[5]": {"conditions": "after oral harmaline 40.0 mg/kg"}, "[6]": {"conditions": "after oral harmine 40.0 mg/kg, 24 h"}, "[7]": {"conditions": "after oral harmine 40.0 mg/kg, 48 h"}, "[8]": {"conditions": "after oral harmine 40.0 mg/kg, 72 h"}}, "data": [{"molecule": "CC(C)NCC(O)COc1cccc2ccccc12", "note": "(stereo not shown) [propranolol, reference compound]", "values": [{"measurement": "PappAB", "setting": "Caco-2 cell monolayers", "value": "41.90 ± 3.30 × 10^−6 cm/s"}]}, {"molecule": "Cc1[nH]ccc2c1[nH]c1cc(=O)ccc12", "note": "[Harmol]", "values": [{"measurement": "Cumulative excretion in feces (%) of the analyte", "setting": "[1]; [2]", "value": "1.24 ± 0.51", "unit": "%"}, {"measurement": "Cumulative excretion in urine (%) of the analyte", "setting": "[1]; [2]", "value": "0.23 ± 0.42", "unit": "%"}, {"measurement": "Cumulative excretion in feces (%) of the analyte", "setting": "[1]; [3]", "value": "1.64 ± 0.73", "unit": "%"}, {"measurement": "Cumulative excretion in urine (%) of the analyte", "setting": "[1]; [3]", "value": "0.50 ± 0.55", "unit": "%"}, {"measurement": "Cumulative excretion in feces (%) of the analyte", "setting": "[1]; [4]", "value": "1.70 ± 0.75", "unit": "%"}, {"measurement": "Cumulative excretion in urine (%) of the analyte", "setting": "[1]; [4]", "value": "0.65 ± 0.56", "unit": "%"}, {"measurement": "Cumulative excretion of the analyte, SUM of urine and feces", "setting": "[1]; [5]", "value": "2.35 ± 0.91", "unit": "%"}, {"measurement": "Cumulative excretion in feces (%) of the analyte", "setting": "[1]; [6]", "value": "5.66 ± 2.96", "unit": "%"}, {"measurement": "Cumulative excretion in urine (%) of the analyte", "setting": "[1]; [6]", "value": "2.51 ± 2.82", "unit": "%"}, {"measurement": "Cumulative excretion in feces (%) of the analyte", "setting": "[1]; [7]", "value": "7.69 ± 3.33", "unit": "%"}, {"measurement": "Cumulative excretion in urine (%) of the analyte", "setting": "[1]; [7]", "value": "4.63 ± 4.53", "unit": "%"}, {"measurement": "Cumulative excretion in feces (%) of the analyte", "setting": "[1]; [8]", "value": "8.38 ± 3.47", "unit": "%"}, {"measurement": "Cumulative excretion in urine (%) of the analyte", "setting": "[1]; [8]", "value": "5.42 ± 5.19", "unit": "%"}, {"measurement": "Cumulative excretion of the analyte, SUM of urine and feces", "setting": "[1]; after oral harmine 40.0 mg/kg", "value": "13.80 ± 5.71", "unit": "%"}]}, {"molecule": "C[C@]12CC[C@@H]3c4ccc(O)cc4CC[C@H]3[C@@H]1CC[C@@H]2O[C@@H]1O[C@H](C(=O)O)[C@@H](O)[C@H](O)[C@H]1O", "note": "[E217βG, estradiol-17 β-glucuronide, reference compound]", "values": [{"measurement": "uptake ratio (UR)", "setting": "human MRP2", "value": 7.71}]}, {"molecule": "CC1=NCCc2c1[nH]c1cc(O)ccc21", "note": "[Harmalol]", "values": [{"measurement": "Cumulative excretion in feces (%) of the analyte", "setting": "[1]; [2]", "value": "1.73 ± 1.01", "unit": "%"}, {"measurement": "Cumulative excretion in urine (%) of the analyte", "setting": "[1]; [2]", "value": "1.16 ± 0.81", "unit": "%"}, {"measurement": "Cumulative excretion in feces (%) of the analyte", "setting": "[1]; [3]", "value": "1.87 ± 1.04", "unit": "%"}, {"measurement": "Cumulative excretion in urine (%) of the analyte", "setting": "[1]; [3]", "value": "2.03 ± 2.12", "unit": "%"}, {"measurement": "Cumulative excretion in feces (%) of the analyte", "setting": "[1]; [4]", "value": "1.89 ± 1.04", "unit": "%"}, {"measurement": "Cumulative excretion in urine (%) of the analyte", "setting": "[1]; [4]", "value": "2.30 ± 2.36", "unit": "%"}, {"measurement": "Cumulative excretion of the analyte, SUM of urine and feces", "setting": "[1]; [5]", "value": "4.18 ± 2.67", "unit": "%"}]}, {"molecule": "C=C[C@H]1C[N+]2(C)CC[C@H]1C[C@@H]2[C@@H](O)c1ccnc2ccc(OC)cc12", "note": "[NMQ, N-methylquinidine, reference compound]", "values": [{"measurement": "uptake ratio (UR)", "setting": "human MDR1", "value": 2.05}]}, {"molecule": "lucifer yellow [LY, reference compound]", "values": [{"measurement": "uptake ratio (UR)", "setting": "human BCRP", "value": 19.66}]}]}
